In US6737383B1, “Herbicidal oxadiazolidines” (priority 1999, dated 2004):

How the values were obtained:
cocklebur = assay: Test B pre/postemergence cocklebur; assay type: in vivo, Xanthium strumarium
Method in brief: (§1)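 Response is a visual 0-to-10 score relative to untreated plants, where 0 means no effect and 10 means complete control, taken twelve to sixteen days after application. Treatments went onto soil at planting and onto foliage of 1- to 4-leaf plants, using a surfactant-containing non-phytotoxic solvent.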

giant foxtail = assay: Test B pre/postemergence giant foxtail; assay type: in vivo, Setaria faberii
Method in brief: as §1

morningglory = assay: Test B pre/postemergence morningglory; assay type: in vivo, Ipomoea hederacea
Method in brief: as §1

bamyardgrass = assay: Test B flood test barnyardgrass; assay type: in vivo, Echinochloa crus-galli
Method in brief: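 Flood test on plants grown to the 2-leaf stage; treated plants kept in greenhouse twelve to sixteen days, then visually rated against controls on a 0 (no effect) to 10 (complete control) scale.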

Alexandergrass = assay: Test D Alexandergrass; assay type: in vivo, Brachiaria plantaginea; details: Preemergence, 0 to 100 scale
Method in brief: (§2)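 Herbicide screen in the greenhouse. A non-phytotoxic solvent mixture with surfactant carried the test chemical; in pre-emergence tests it went onto the soil of pots seeded no more than a day earlier. Injury was scored by eye 14 to 21 days after application, 0 to 100.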

goosegrass = assay: Test D goosegrass; assay type: in vivo, Eleusine indica; details: Preemergence, 0 to 100 scale
Method in brief: as §2

purple nutsedge = assay: Test D purple nutsedge; assay type: in vivo, Cyperus rotundus; details: Preemergence, 0 to 100 scale
Method in brief: as §2

tall mallow = assay: Test D tall mallow; assay type: in vivo, Malva sylvestris; details: Preemergence, 0 to 100 scale
Method in brief: as §2

winter wheat [1] = assay: Test E winter wheat; assay type: in vivo, Triticum aestivum; details: Postemergence
Method in brief: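 Greenhouse test: for postemergence, foliar application at 1- to 4-leaf stage; compound in non-phytotoxic solvent with surfactant. Rating is visual, relative to untreated controls, about 21 to 28 days after treatment.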

blackgrass = assay: Test E blackgrass; assay type: in vivo, Alopecurus myosuroides; details: Preemergence
green foxtail = assay: Test E green foxtail; assay type: in vivo, Setaria viridis; details: Preemergence
Italian ryegrass = assay: Test E Italian ryegrass; assay type: in vivo, Lolium multiflorum; details: Preemergence
winter wheat [2] = assay: Test E winter wheat; assay type: in vivo, Triticum aestivum; details: Preemergence
wild oat = assay: Test E wild oat; assay type: in vivo, Avena fatua; details: Preemergence
winter barley = assay: Test E winter barley; assay type: in vivo, Hordeum vulgare; details: Preemergence
[3] = Postemergence, Rate 125 g/ha, scale of 0 to 10 where 0 is no effect and 10 is complete control
[4] = Postemergence, Rate 250 g/ha, scale 0 to 10, 0 no effect, 10 complete control
[5] = Preemergence, Rate 125 g/ha, scale 0 to 10 (0 no effect, 10 complete control)
[6] = Preemergence, Rate 250 g/ha, scale of 0 to 10 where 0 is no effect and 10 is complete control
[7] = Preemergence, Rate 500 g/ha, scale 0 to 10 (0 no effect, 10 complete control)
[8] = Rate 62 g/ha, Postemergence, scale of 0 to 10 where 0 is no effect and 10 is complete control
[9] = Rate 500 g/ha, Postemergence, scale 0 to 10, 0 no effect, 10 complete control
[10] = Preemergence, Rate 62 g/ha, scale 0 to 10 (0 no effect, 10 complete control)
[11] = Postemergence, Rate 62 g/ha, scale 0 to 10, 0 is no effect, 10 is complete control
[12] = Rate 125 g/ha, Postemergence section (flood test species), scale 0 to 10, 0 no effect, 10 complete control
[13] = Rate 500 g/ha, listed under Postemergence (flood test species), scale 0 to 10, 0 no effect, 10 complete control
[14] = flood test, listed under Postemergence, Rate 250 g/ha, scale 0 to 10, 0 no effect, 10 complete control
[15] = Rate 16 g/ha, 0 no injury, 100 complete control
[16] = Rate 32 g/ha, 0 no injury, 100 complete control
[17] = Rate 64 g/ha, 0 no injury, 100 complete control
[18] = Rate 125 g/ha, 0 no injury, 100 complete control
[19] = Rate 250 g/ha, 0 to 100 scale (0 no effect, 100 complete control)
[20] = Rate 62 g/ha, 0 to 100 scale, 0 no effect, 100 complete control
[21] = Rate 125 g/ha, 0 to 100 scale (0 no effect, 100 complete control)

CCn1c(=O)on(C(=O)N(c2ccc(Cl)cc2)C(C)C)c1=O [Compound 108]
65: Plant response rating, Green foxtail (green foxtail; [20])
95: Plant response rating, I. Ryegrass (Italian ryegrass; Rate 250 g/ha, 0 to 100 scale)
45: Plant response rating, Tall Mallow (tall mallow; Rate 250 g/ha) | Plant response rating, I. Ryegrass (Italian ryegrass; [21])
8: Giant foxtail plant response rating (giant foxtail; [4]) | Giant foxtail plant response rating (giant foxtail; [9])
100: Plant response rating, Alexandergrass (Alexandergrass; Rate 250 g/ha) | Plant response rating, Alexandergrass (Alexandergrass; Rate 500 g/ha) | Plant response rating, Goosegrass (goosegrass; [18]) | Plant response rating, Goosegrass (goosegrass; Rate 250 g/ha) | Plant response rating, Goosegrass (goosegrass; Rate 500 g/ha)
10: Giant foxtail plant response rating (giant foxtail; [10]) | Plant response rating, Giant foxtail (giant foxtail; [5]) | Plant response rating, Giant foxtail (giant foxtail; [6]) | Giant foxtail plant response rating (giant foxtail; [7]) | Purple nutsedge plant response rating (purple nutsedge; [18]) | Plant response rating, Purple nutsedge (purple nutsedge; Rate 250 g/ha) | Tall Mallow plant response rating (tall mallow; [18]) | Plant response rating, Wheat (winter) (winter wheat [2]; [21]) | Plant response rating, Wheat (winter) (winter wheat [2]; Rate 250 g/ha, 0 to 100 scale) | Plant response rating, Barley (winter) (winter barley; [20]) | Plant response rating, Barley (winter) (winter barley; Rate 250 g/ha, 0 to 100 scale)
0: Cocklebur plant response rating (cocklebur; [3]) | Cocklebur plant response rating (cocklebur; [4]) | Plant response rating, Cocklebur (cocklebur; [5]) | Plant response rating, Cocklebur (cocklebur; [6]) | Cocklebur plant response rating (cocklebur; [7]) | Cocklebur plant response rating (cocklebur; [8]) | Morningglory plant response rating (morningglory; [10]) | Plant response rating, Morningglory (morningglory; [5]) | Plant response rating, Morningglory (morningglory; [6]) | Morningglory plant response rating (morningglory; [7]) | Morningglory plant response rating (morningglory; [8]) | Barnyardgrass plant response rating (bamyardgrass; [11]) | Barnyardgrass plant response rating (bamyardgrass; [12]) | Barnyardgrass plant response rating (bamyardgrass; Rate 250 g/ha, headed Pre-emergence (flood test species), scale 0 to 10 (0 no effect, 10 complete control)) | Plant response rating, Barnyardgrass (bamyardgrass; Rate 500 g/ha, headed Pre-emergence (flood test species), scale 0 to 10 (0 no effect, 10 complete control)) | Barnyardgrass plant response rating (bamyardgrass; [13]) | Barnyardgrass plant response rating (bamyardgrass; Rate 1000 g/ha, Pre-emergence (as headed), scale 0 to 10) | Barnyardgrass plant response rating (bamyardgrass; Rate 2000 g/ha, Pre-emergence (as headed), scale 0 to 10, 0 no effect, 10 complete control) | Barnyardgrass plant response rating (bamyardgrass; [14]) | Plant response rating, Purple nutsedge (purple nutsedge; [15]) | Plant response rating, Purple nutsedge (purple nutsedge; [16]) | Purple nutsedge plant response rating (purple nutsedge; [17]) | Plant response rating, Tall Mallow (tall mallow; [15]) | Plant response rating, Tall Mallow (tall mallow; [16]) | Tall Mallow plant response rating (tall mallow; [17]) | Plant response rating, Wheat (winter) (winter wheat [1]; Rate 62 g/ha, 0 to 100 scale) | Plant response rating, Wheat (winter) (winter wheat [2]; [20])
98: Plant response rating, Alexandergrass (Alexandergrass; [18]) | Plant response rating, Goosegrass (goosegrass; [17]) | Plant response rating, Tall Mallow (tall mallow; Rate 500 g/ha)
75: Plant response rating, Blackgrass (blackgrass; [21])
5: Giant foxtail plant response rating (giant foxtail; [8])
90: Plant response rating, Blackgrass (blackgrass; Rate 250 g/ha, 0 to 100 scale) | Plant response rating, Green foxtail (green foxtail; Rate 250 g/ha, 0 to 100 scale)
7: Giant foxtail plant response rating (giant foxtail; [3])
15: Plant response rating, Wild oat (wild oat; [20])
30: Plant response rating, Purple nutsedge (purple nutsedge; Rate 500 g/ha) | Plant response rating, Wild oat (wild oat; [21])
3: Morningglory plant response rating (morningglory; [3]) | Morningglory plant response rating (morningglory; [4]) | Morningglory plant response rating (morningglory; [9])
85: Plant response rating, Alexandergrass (Alexandergrass; [17]) | Plant response rating, Goosegrass (goosegrass; [16])
20: Plant response rating, Alexandergrass (Alexandergrass; [15]) | Plant response rating, Alexandergrass (Alexandergrass; [16]) | Plant response rating, Wheat (winter) (winter wheat [1]; Rate 125 g/ha, 0 to 100 scale) | Plant response rating, I. Ryegrass (Italian ryegrass; [20]) | Plant response rating, Barley (winter) (winter barley; [21])
2: Cocklebur plant response rating (cocklebur; [9])
40: Plant response rating, Wheat (winter) (winter wheat [1]; [19]) | Plant response rating, Blackgrass (blackgrass; [20])
60: Plant response rating, Goosegrass (goosegrass; [15])

CC(C)N(C(=O)n1oc(=O)n(C2CCCCC2)c1=O)c1ccc(F)cc1 [Compound 110]
3: Cocklebur plant response rating (cocklebur; [9])
0: Cocklebur plant response rating (cocklebur; [10]) | Plant response rating, Cocklebur (cocklebur; [5]) | Plant response rating, Cocklebur (cocklebur; [6]) | Cocklebur plant response rating (cocklebur; [7]) | Cocklebur plant response rating (cocklebur; [8]) | Giant foxtail plant response rating (giant foxtail; [8]) | Morningglory plant response rating (morningglory; [10]) | Plant response rating, Morningglory (morningglory; [5]) | Plant response rating, Morningglory (morningglory; [6]) | Morningglory plant response rating (morningglory; [7]) | Barnyardgrass plant response rating (bamyardgrass; [11]) | Barnyardgrass plant response rating (bamyardgrass; [12]) | Barnyardgrass plant response rating (bamyardgrass; [13]) | Barnyardgrass plant response rating (bamyardgrass; [14]) | Plant response rating, Purple nutsedge (purple nutsedge; Rate 250 g/ha) | Plant response rating, Purple nutsedge (purple nutsedge; Rate 500 g/ha) | Plant response rating, Tall Mallow (tall mallow; Rate 250 g/ha) | Plant response rating, Tall Mallow (tall mallow; Rate 500 g/ha) | Plant response rating, Wheat (winter) (winter wheat [1]; Rate 62 g/ha, 0 to 100 scale) | Plant response rating, Wheat (winter) (winter wheat [1]; Rate 125 g/ha, 0 to 100 scale) | Plant response rating, Wheat (winter) (winter wheat [1]; [19]) | Plant response rating, I. Ryegrass (Italian ryegrass; [20]) | Plant response rating, I. Ryegrass (Italian ryegrass; [21]) | Plant response rating, Wheat (winter) (winter wheat [2]; [20]) | Plant response rating, Wheat (winter) (winter wheat [2]; [21]) | Plant response rating, Wheat (winter) (winter wheat [2]; Rate 250 g/ha, 0 to 100 scale) | Plant response rating, Wild oat (wild oat; [20]) | Plant response rating, Wild oat (wild oat; [21]) | Plant response rating, Barley (winter) (winter barley; [20]) | Plant response rating, Barley (winter) (winter barley; [21])
5: Giant foxtail plant response rating (giant foxtail; [4]) | Morningglory plant response rating (morningglory; [3]) | Morningglory plant response rating (morningglory; [4]) | Morningglory plant response rating (morningglory; [9]) | Plant response rating, Barley (winter) (winter barley; Rate 250 g/ha, 0 to 100 scale)
8: Giant foxtail plant response rating (giant foxtail; [9])
100: Plant response rating, Alexandergrass (Alexandergrass; Rate 250 g/ha) | Plant response rating, Alexandergrass (Alexandergrass; Rate 500 g/ha) | Plant response rating, Goosegrass (goosegrass; Rate 250 g/ha) | Plant response rating, Goosegrass (goosegrass; Rate 500 g/ha)
20: Plant response rating, Blackgrass (blackgrass; [20]) | Plant response rating, I. Ryegrass (Italian ryegrass; Rate 250 g/ha, 0 to 100 scale)
4: Morningglory plant response rating (morningglory; [8])
50: Plant response rating, Blackgrass (blackgrass; [21])
85: Plant response rating, Green foxtail (green foxtail; Rate 250 g/ha, 0 to 100 scale)
2: Cocklebur plant response rating (cocklebur; [3]) | Cocklebur plant response rating (cocklebur; [4]) | Giant foxtail plant response rating (giant foxtail; [3])
10: Giant foxtail plant response rating (giant foxtail; [10]) | Plant response rating, Giant foxtail (giant foxtail; [5]) | Plant response rating, Giant foxtail (giant foxtail; [6]) | Giant foxtail plant response rating (giant foxtail; [7])
60: Plant response rating, Blackgrass (blackgrass; Rate 250 g/ha, 0 to 100 scale) | Plant response rating, Green foxtail (green foxtail; [21])
30: Plant response rating, Green foxtail (green foxtail; [20])
